Measurements taken from US20260297060A1, “COMPOUNDS FOR THE DEGRADATION OF MUTANT BRAF” (C4 THERAPEUTICS, INC., priority 2023, published 2026).
Like-named read-outs stand apart in the source and are kept apart here.

Experiments:
A375 = A375 cell viability assay (Example 15); format: cell-based, human
Experimental: FIG. 83 is a line graph showing the results of Compound 26, Compound 26-NMe, Compound 141, and Compound 141-NMe in an A375 viability assay. The y-axis is viability in % and the x-axis is concentration (nM). The experiment was conducted as described in Example 15.
This robust degradation activity is surprising in view of the minimal inhibition-based activity of selected compounds. […] However, the degradation deficient versions of Compound 26 and Compound 141 (N-methyl analogs) had minimal effect on cell viability at a concentration of 100 nM (see FIG. 83 and Example 15).

[1] = Pharmacokinetics in female BALB/c nude mice bearing A375 xenografts, 1 day dosing (PK and PD study): plasma, tumor and brain concentrations, AUC; format: in vivo
Source text: The concentrations of Dabrafenib, Compound 26 and Compound 141 in the treatment of female BALB/c nude mice bearing A375 xenografts are shown in Table 62-Table 72 and FIG. 52-FIG. 73.

[2] = 0.75 mg/kg p.o. BID × 1 day, post 2nd dose, 48 h, BQL: below the lower limit of quantitation
[3] = 1 mg/kg p.o. TID × 1 day, post 3rd dose, 48 h, BQL: below the lower limit of quantitation
[4] = Compound 141, 1.5 mg/kg p.o. BID × 1 day, post 2nd dose, 36 h, BQL: below the lower limit of quantitation
[5] = Compound 141, 1.5 mg/kg p.o. BID × 1 day, post 2nd dose, 48 h, BQL: below the lower limit of quantitation
[6] = mouse, brain, po, 0.75 mg/kg, 0.75 mg/kg p.o. BID × 1 day, post 2nd dose, read-out: Mean Concentration in Brain ± SEM
[7] = mouse, brain, po, 1 mg/kg, 1 mg/kg p.o. TID × 1 day, post 3rd dose, read-out: Mean Concentration in Brain ± SEM
[8] = mouse, brain, po, 1.5 mg/kg, Compound 141, 1.5 mg/kg p.o. BID × 1 day, post 2nd dose, read-out: Mean Concentration in Brain ± SEM
[9] = mouse, brain, po, 3 mg/kg, 3 mg/kg p.o. QD × 1 day, read-out: Mean Concentration in Brain ± SEM
[10] = mouse, brain, po, 5 mg/kg, 5 mg/kg p.o. BID × 1 day, post 2nd dose, read-out: Mean Concentration in Brain ± SEM
[11] = mouse, plasma, po, 0.75 mg/kg, 0.75 mg/kg p.o. BID × 1 day, post 1st dose, read-out: Mean Concentration in Plasma ± SEM
[12] = mouse, plasma, po, 0.75 mg/kg, 0.75 mg/kg p.o. BID × 1 day, post 2nd dose, read-out: Mean Concentration in Plasma ± SEM
[13] = mouse, plasma, po, 1 mg/kg, 1 mg/kg p.o. TID × 1 day, post 1st dose, read-out: Mean Concentration in Plasma ± SEM
[14] = mouse, plasma, po, 1 mg/kg, 1 mg/kg p.o. TID × 1 day, post 2nd dose, read-out: Mean Concentration in Plasma ± SEM
[15] = mouse, plasma, po, 1 mg/kg, 1 mg/kg p.o. TID × 1 day, post 3rd dose, read-out: Mean Concentration in Plasma ± SEM

SMILES: CCN(C)S(=O)(=O)Nc1ccc(F)c(Oc2ccc3ncn(C4CC5(CCN(C6CC7(C6)CN(c6cc8c(cc6F)c(N6CCC(=O)NC6=O)nn8C)C7)CC5)C4)c(=O)c3c2)c1C#N (centres unmarked) [Compound 141, 6-[2-cyano-3-[[ethyl(methyl)sulfamoyl]amino]-6-fluoro-phenoxy]-3-[7-[2-[3-(2,4-dioxohexahydropyrimidin-1-yl)-5-fluoro-1-methyl-indazol-6-yl]-2-azaspiro[3.3]heptan-6-yl]-7-azaspiro[3.5]nonan-2-yl]-4-oxo-quinazoline]
- cytotoxicity (in words) (A375; A375 cells): potent cytotoxic agents
- effect on cancer cell viability (A375; human, a375 cells, 0.1 µM): ≥ 30%
- Mean Concentration in Brain ± SEM ([1]; 0.75 mg/kg p.o. BID × 1 day, post 2nd dose, 24 h, BQL: below the lower limit of quantitation): BQL^a
- Mean Concentration in Brain ± SEM [1, 2]: BQL
- Mean Concentration in Tumor ± SEM [1, 2]: BQL
- Mean Concentration in Brain ± SEM ([1]; 1 mg/kg p.o. TID × 1 day, post 3rd dose, 24 h, BQL: below the lower limit of quantitation): BQL^a
- Mean Concentration in Brain ± SEM [1, 3]: BQL
- Mean Concentration in Plasma ± SEM [1, 3]: BQL
- Mean Concentration in Plasma ± SEM ([1]; 3 mg/kg p.o. QD × 1 day, 48 h, BQL: below the lower limit of quantitation): BQL^a
- Mean Concentration in Brain ± SEM ([1]; 5 mg/kg p.o. BID × 1 day, post 2nd dose, 24 h, BQL: below the lower limit of quantitation): BQL^a
- Mean Concentration in Brain ± SEM ([1]; Compound 141, 1.5 mg/kg p.o. BID × 1 day, post 2nd dose, 24 h, BQL: below the lower limit of quantitation): BQL^a
- Mean Concentration in Brain ± SEM [1, 4]: BQL
- Mean Concentration in Plasma ± SEM [1, 4]: BQL
- Mean Concentration in Brain ± SEM [1, 5]: BQL
- Mean Concentration in Plasma ± SEM [1, 5]: BQL
- concentration at 1 h [1, 6]: 26.7 ± 2.39 ng/g
- concentration at 4 h [1, 6]: 10.2 ± 1.3 ng/g
- concentration at 10 h [1, 6]: 6.61 ± 2 ng/g
- concentration at 1 h [1, 7]: 22 ± 3.26 ng/g
- concentration at 4 h [1, 7]: 17.9 ± 3.94 ng/g
- concentration at 10 h [1, 7]: 14.6 ± 3.36 ng/g
- concentration at 0.25 h [1, 8]: 11.2 ± 1.24 ng/g
- concentration at 0.5 h [1, 8]: 25.5 ± 2.96 ng/g
- concentration at 1 h [1, 8]: 44.1 ± 5.96 ng/g
- concentration at 2 h [1, 8]: 39.3 ± 0.318 ng/g
- concentration at 4 h [1, 8]: 23.5 ± 4.95 ng/g
- concentration at 10 h [1, 8]: 3.51 ± 1.17 ng/g
- concentration at 1 h [1, 9]: 70.5 ± 4.29 ng/g
- concentration at 4 h [1, 9]: 37.6 ± 9.11 ng/g
- concentration at 10 h [1, 9]: 11 ± 1.97 ng/g
- concentration at 24 h ([1]; mouse, brain, po, 3 mg/kg, 3 mg/kg p.o. QD × 1 day, 24 h, read-out: Mean Concentration in Brain ± SEM): 3.31 ng/g
- concentration at 48 h ([1]; mouse, brain, po, 3 mg/kg, 3 mg/kg p.o. QD × 1 day, 48 h, read-out: Mean Concentration in Brain ± SEM): 1.79 ng/g
- concentration at 1 h [1, 10]: 126 ± 6.12 ng/g
- concentration at 4 h [1, 10]: 52.9 ± 12.8 ng/g
- concentration at 10 h [1, 10]: 13.1 ± 2.79 ng/g
- concentration at 48 h ([1]; mouse, brain, po, 5 mg/kg, 5 mg/kg p.o. BID × 1 day, post 2nd dose, 48 h, read-out: Mean Concentration in Brain ± SEM): 4 ng/g
- concentration at 0.25 h [1, 11]: 340 ± 19 ng/mL
- concentration at 0.5 h [1, 11]: 832 ± 61.1 ng/mL
- concentration at 1 h [1, 11]: 1070 ± 94.7 ng/mL
- concentration at 2 h [1, 11]: 972 ± 13.5 ng/mL
- concentration at 4 h [1, 11]: 491 ± 20.2 ng/mL
- concentration at 8 h [1, 11]: 66.3 ± 5.93 ng/mL
- concentration at 12 h ([1]; mouse, plasma, po, 0.75 mg/kg, 0.75 mg/kg p.o. BID × 1 day, post 1st dose, 12 h, read-out: Mean Concentration in Plasma ± SEM): 26.5 ± 4.92 ng/mL
- concentration at 0.25 h [1, 12]: 297 ± 13.2 ng/mL
- concentration at 0.5 h [1, 12]: 502 ± 84.1 ng/mL
- concentration at 1 h [1, 12]: 778 ± 59.4 ng/mL
- concentration at 2 h [1, 12]: 818 ± 118 ng/mL
- concentration at 4 h [1, 12]: 247 ± 24.5 ng/mL
- concentration at 10 h [1, 12]: 111 ± 18.4 ng/mL
- concentration at 24 h ([1]; mouse, plasma, po, 0.75 mg/kg, 0.75 mg/kg p.o. BID × 1 day, post 2nd dose, 24 h, read-out: Mean Concentration in Plasma ± SEM): 1.09 ± 0.203 ng/mL
- concentration at 36 h ([1]; mouse, plasma, po, 0.75 mg/kg, 0.75 mg/kg p.o. BID × 1 day, post 2nd dose, 36 h, read-out: Mean Concentration in Plasma ± SEM): 0.764 ng/mL
- concentration at 48 h ([1]; mouse, plasma, po, 0.75 mg/kg, 0.75 mg/kg p.o. BID × 1 day, post 2nd dose, 48 h, read-out: Mean Concentration in Plasma ± SEM): 4.96 ng/mL
- concentration at 0.25 h [1, 13]: 438 ± 25.4 ng/mL
- concentration at 0.5 h [1, 13]: 836 ± 10.8 ng/mL
- concentration at 1 h [1, 13]: 1130 ± 180 ng/mL
- concentration at 2 h [1, 13]: 1000 ± 55.2 ng/mL
- concentration at 4 h [1, 13]: 699 ± 129 ng/mL
- concentration at 8 h [1, 13]: 242 ± 30.4 ng/mL
- concentration at 0.25 h [1, 14]: 334 ± 54.7 ng/mL
- concentration at 2 h [1, 14]: 879 ± 74.6 ng/mL
- concentration at 8 h [1, 14]: 218 ± 16.3 ng/mL
- concentration at 0.25 h [1, 15]: 346 ± 65.5 ng/mL
- concentration at 0.5 h [1, 15]: 694 ± 54.4 ng/mL
- concentration at 1 h [1, 15]: 664 ± 72 ng/mL
- concentration at 2 h [1, 15]: 1600 ± 124 ng/mL
- concentration at 4 h [1, 15]: 563 ± 173 ng/mL
- concentration at 10 h [1, 15]: 415 ± 74.4 ng/mL
- concentration at 24 h ([1]; mouse, plasma, po, 1 mg/kg, 1 mg/kg p.o. TID × 1 day, post 3rd dose, 24 h, read-out: Mean Concentration in Plasma ± SEM): 10.5 ± 5.67 ng/mL
